A short description of test [1]: DRUGMATRIX: Purinergic P2X radioligand binding (ligand: [3H] alpha, beta-Methylene-ATP). Type of test: cell membranes, Oryctolagus cuniculus, New Zealand albino, Urinary bladder, Membrane. The settings on record: Not Active = under 50% inhibition at 10 µM.
Test [2] addresses 5-hydroxytryptamine receptor 2B (Homo sapiens, UniProt P41595). Type of test: cell membranes, CHO-K1, Membrane. Particulars: cho-k1.
A short description of test [3]: DRUGMATRIX: Sodium/nucleoside co-transporter radioligand binding (ligand: nitrobenzylthioinosine). Type of test: cell membranes, Cavia porcellus, Dunkin-Hartley, Cerebral cortex, Membrane. Particulars: Not Active = under 50% inhibition at 10 µM.
The target in test [4] is T1, 5-hydroxytryptamine receptor 2C (Homo sapiens, UniProt P28335).
T1 sequence (P28335 whole entry): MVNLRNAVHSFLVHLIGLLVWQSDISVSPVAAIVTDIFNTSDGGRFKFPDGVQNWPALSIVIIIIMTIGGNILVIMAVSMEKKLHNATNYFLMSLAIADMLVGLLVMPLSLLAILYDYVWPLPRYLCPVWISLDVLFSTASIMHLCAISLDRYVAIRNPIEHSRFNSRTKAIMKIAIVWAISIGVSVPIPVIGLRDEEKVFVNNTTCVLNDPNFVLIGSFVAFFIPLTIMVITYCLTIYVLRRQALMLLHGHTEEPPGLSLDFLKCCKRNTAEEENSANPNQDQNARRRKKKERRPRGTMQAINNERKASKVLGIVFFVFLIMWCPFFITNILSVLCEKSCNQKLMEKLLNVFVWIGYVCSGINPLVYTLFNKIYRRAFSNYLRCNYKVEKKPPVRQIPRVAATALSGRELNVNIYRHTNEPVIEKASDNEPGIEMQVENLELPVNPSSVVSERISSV
Nature of the test: DRUGMATRIX: Serotonin (5-Hydroxytryptamine) 5-HT2C radioligand binding (ligand: [3H] Mesulergine). Type of test: cell membranes, CHO-K1, Membrane. Particulars: cho-k1; Not Active = under 50% inhibition at 10 µM.

In test [5] the target is Kappa-type opioid receptor (Homo sapiens, UniProt P41145). Nature of the test: DRUGMATRIX: Opiate kappa (OP2, KOP) radioligand binding (ligand: [3H] Diprenorphine). Particulars: hek293; Not Active = under 50% inhibition at 10 µM. Type of test: cell membranes, HEK293, Membrane.
Sequence of Kappa-type opioid receptor (P41145 whole entry): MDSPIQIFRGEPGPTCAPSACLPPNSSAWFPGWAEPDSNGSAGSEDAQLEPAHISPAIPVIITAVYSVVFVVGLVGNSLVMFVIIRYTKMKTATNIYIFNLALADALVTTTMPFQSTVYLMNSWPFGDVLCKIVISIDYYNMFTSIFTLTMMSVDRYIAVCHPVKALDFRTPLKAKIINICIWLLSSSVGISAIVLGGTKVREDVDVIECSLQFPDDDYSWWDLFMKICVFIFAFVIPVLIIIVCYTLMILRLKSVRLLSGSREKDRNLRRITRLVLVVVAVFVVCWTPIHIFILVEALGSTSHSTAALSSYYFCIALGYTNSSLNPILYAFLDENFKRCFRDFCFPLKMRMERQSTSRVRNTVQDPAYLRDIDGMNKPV
Test [6] can be described thus: DRUGMATRIX: Platelet-Derived Growth Factor (PDGF) radioligand binding (ligand: [125I] PDGF). Type of test: cell-based. The settings on record: nih3t3; Not Active = under 50% inhibition at 10 µM.
A short description of test [7]: DRUGMATRIX: Imidazoline I2, Central radioligand binding (ligand: [3H] Idazoxan). Type of test: cell membranes, Rattus norvegicus, Wistar, Cerebral cortex, Membrane. The settings on record: Not Active = under 50% inhibition at 10 µM.
Test [8] is described as follows: DRUGMATRIX: Glutamate, AMPA radioligand binding (ligand: [3H] AMPA). Type of test: cell membranes, Rattus norvegicus, Wistar, Cerebral cortex, Membrane. Particulars: Not Active = under 50% inhibition at 10 µM.
In another test the target is T2, Interstitial collagenase (Homo sapiens, UniProt P03956).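 Further: MMP-1 enzyme inhibition assay using a peptide substrate; in other assays of this panel Not Active means under 50% inhibition at 10 µM.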
T2 sequence (P03956 whole entry): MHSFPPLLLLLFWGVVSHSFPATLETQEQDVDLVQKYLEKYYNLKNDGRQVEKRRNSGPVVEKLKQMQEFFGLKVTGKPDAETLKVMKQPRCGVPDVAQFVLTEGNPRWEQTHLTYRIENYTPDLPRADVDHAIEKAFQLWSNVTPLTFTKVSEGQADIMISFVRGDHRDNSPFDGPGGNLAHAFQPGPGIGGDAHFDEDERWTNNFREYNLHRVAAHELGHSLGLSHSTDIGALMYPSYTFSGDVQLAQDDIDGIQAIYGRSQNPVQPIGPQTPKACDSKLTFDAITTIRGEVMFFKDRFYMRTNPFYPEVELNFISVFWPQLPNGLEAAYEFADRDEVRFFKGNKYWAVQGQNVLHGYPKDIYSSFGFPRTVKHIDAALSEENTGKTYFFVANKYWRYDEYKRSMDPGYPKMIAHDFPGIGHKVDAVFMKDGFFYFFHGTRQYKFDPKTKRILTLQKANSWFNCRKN
Kind of test: biochemical. Type of test: tissue-based, Rheumatoid synovial fibroblasts.

Test [9] deals with T3, Neuropeptide Y receptor type 2 (Homo sapiens, UniProt P49146).
T3 sequence (P49146 whole entry): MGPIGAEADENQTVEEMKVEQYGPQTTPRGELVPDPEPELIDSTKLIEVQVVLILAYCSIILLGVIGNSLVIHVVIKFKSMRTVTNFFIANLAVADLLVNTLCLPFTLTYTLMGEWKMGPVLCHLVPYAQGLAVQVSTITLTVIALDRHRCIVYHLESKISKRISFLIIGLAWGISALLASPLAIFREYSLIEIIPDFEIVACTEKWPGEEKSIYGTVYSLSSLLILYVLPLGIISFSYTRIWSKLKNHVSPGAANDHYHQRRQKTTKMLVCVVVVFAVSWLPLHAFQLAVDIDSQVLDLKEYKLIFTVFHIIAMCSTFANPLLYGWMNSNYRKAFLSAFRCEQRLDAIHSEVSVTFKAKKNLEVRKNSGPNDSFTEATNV
Type of test: cell membranes, Membrane. The settings on record: kan-ts.

Ten compounds from ChEMBL document CHEMBL1909046, “DrugMatrix in vitro pharmacology data” can be followed below.

Sequence of 5-hydroxytryptamine receptor 2B (P41595 whole entry): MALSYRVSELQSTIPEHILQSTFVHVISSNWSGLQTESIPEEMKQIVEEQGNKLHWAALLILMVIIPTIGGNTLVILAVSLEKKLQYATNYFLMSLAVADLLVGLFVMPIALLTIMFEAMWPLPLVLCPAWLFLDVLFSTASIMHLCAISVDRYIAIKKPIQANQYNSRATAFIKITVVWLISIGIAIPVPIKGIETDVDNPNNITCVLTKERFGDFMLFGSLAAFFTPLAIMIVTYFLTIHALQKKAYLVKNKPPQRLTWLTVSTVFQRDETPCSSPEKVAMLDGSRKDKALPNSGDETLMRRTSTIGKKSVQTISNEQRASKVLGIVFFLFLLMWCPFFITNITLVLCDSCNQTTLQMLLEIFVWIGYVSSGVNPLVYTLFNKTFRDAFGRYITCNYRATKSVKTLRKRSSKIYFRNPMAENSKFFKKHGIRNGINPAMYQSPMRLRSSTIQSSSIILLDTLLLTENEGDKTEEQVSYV

Consider `COCCOC(=O)C1=C(C)NC(C)=C(C(=O)OC(C)C)C1c1cccc([N+](=O)[O-])c1` (stereo not given) [NIMODIPINE], for which the IC50 (usually the concentration that gives 50% inhibition) was “Not Active” in [1]; “Not Active” in test [2]; 1270 nM in test [3] (read-out: IC50); “Not Active” in [4]; “Not Active” in test [5]; “Not Active” in [6]. For the same compound, the IC50 entry (in test [7]; in test [8]; against Interstitial collagenase; in test [9]) was “Not Active” each time. Further, the Ki – broadly, a measure of affinity in units of concentration, obtained from inhibition or displacement – in test [1] is “Not Active”; in [3] (read-out: Ki), 433 nM; in [6] it was “Not Active”; in test [7], “Not Active”; in test [8], “Not Active”.
In the case of `COCCCOc1ccnc(C[S+]([O-])c2nc3ccccc3[nH]2)c1C` (stereo not given) [RABEPRAZOLE], the IC50 entry in test [1], in test [2], in [3], in test [4], in test [5] and in test [6] was “Not Active” in each case. Moreover, the IC50 result (in test [7]; in test [8]; at Interstitial collagenase; in test [9]) was “Not Active” in each case. For the same compound, the inhibitory constant (Ki) result in [1], in test [3], in [6], in test [7] and in test [8] was “Not Active” in each case.
For the compound `CNC(=C[N+](=O)[O-])NCCSCc1ccc(CN(C)C)o1` [RANITIDINE], the 50% inhibitory concentration (IC50) result in test [1], in [2], in test [3], in [4], in test [5] and in test [6] was “Not Active” each time. Further, the IC50 entry (in [7]; in test [8]; against Interstitial collagenase; in [9]) was “Not Active” each time. For the same compound, the Ki result in test [1], in [3], in test [6], in test [7] and in [8] was “Not Active” in each case.
Consider `CO[C@H]1/C=C/O[C@@]2(C)Oc3c(C)c(O)c4c(c3C2=O)C2=NC3(CCN(CC(C)C)CC3)NC2=C(NC(=O)/C(C)=C\C=C\[C@H](C)[C@H](O)[C@@H](C)[C@@H](O)[C@@H](C)[C@H](OC(C)=O)[C@@H]1C)C4=O` [RIFABUTIN], for which the IC50 entry in test [1], in test [2], in [3], in test [4], in [5] and in test [6] was “Not Active” in each case. Further, the half-inhibitory concentration (IC50) result (in test [7]; in [8]; at Interstitial collagenase; in [9]) was “Not Active” throughout. Besides, the Ki result in test [1], in test [3], in test [6], in test [7] and in test [8] was “Not Active” in each case.
For `CC(C)CC(N(C)C)C1(c2ccc(Cl)cc2)CCC1` (stereo not given) [SIBUTRAMINE], the IC50 entry in test [1], in test [2], in [3], in test [4], in [5] and in test [6] was “Not Active” each time. In addition, the IC50 entry (in test [7]; in test [8]; against Interstitial collagenase; in [9]) was “Not Active” each time. Besides, the Ki result in [1], in test [3], in [6], in [7] and in [8] was “Not Active” each time.
On to `[H]/N=C(/N)N[C@H]1[C@H](O)[C@@H](O)[C@H](O[C@@H]2O[C@@H](C)[C@](O)(C=O)[C@H]2O[C@@H]2O[C@@H](CO)[C@H](O)[C@@H](O)[C@@H]2NC)[C@@H](N/C(N)=N\[H])[C@@H]1O` [STREPTOMYCIN], for which the IC50 result in [1], in test [2], in test [3], in test [4], in test [5] and in [6] was “Not Active” throughout. Also, the IC50 result (in [7]; in test [8]; against Interstitial collagenase; in test [9]) was “Not Active” in each case. Further, the Ki entry in [1], in test [3], in test [6], in [7] and in test [8] was “Not Active” each time.
As to `COc1cc(NS(=O)(=O)c2ccc(N)cc2)nc(OC)n1` [SULFADIMETHOXINE], the half-inhibitory concentration (IC50) entry in [1], in test [2], in test [3], in [4], in [5] and in test [6] was “Not Active” each time. For the same compound, the 50% inhibitory concentration (IC50) result (in [7]; in test [8]; on Interstitial collagenase; in test [9]) was “Not Active” throughout. The inhibitory constant (Ki) entry in [1], in test [3], in test [6], in test [7] and in test [8] was “Not Active” in each case.
As to `Cc1cc(C)nc(NS(=O)(=O)c2ccc(N)cc2)n1` [SULFAMETHAZINE], the IC50 result in test [1], in test [2], in test [3], in test [4], in [5] and in [6] was “Not Active” each time. Also, the IC50 entry (in test [7]; in test [8]; on Interstitial collagenase; in test [9]) was “Not Active” throughout. Moreover, the Ki entry in test [1], in test [3], in test [6], in test [7] and in [8] was “Not Active” throughout.
Take `C[C@]1(Cn2ccnn2)[C@H](C(=O)O)N2C(=O)C[C@H]2S1(=O)=O` [TAZOBACTAM]: the IC50 result in test [1], in [2], in test [3], in [4], in [5] and in test [6] was “Not Active” throughout. The IC50 entry (in test [7]; in test [8]; against Interstitial collagenase; in [9]) was “Not Active” throughout. In addition, the Ki result in test [1], in [3], in [6], in test [7] and in test [8] was “Not Active” throughout.
As for `CN1C(C(=O)Nc2ccccn2)=C(O)c2sccc2S1(=O)=O` [TENOXICAM], the IC50 result in [1], in test [2], in [3], in test [4], in test [5] and in test [6] was “Not Active” each time. The IC50 entry (in test [7]; in test [8]; at Interstitial collagenase; in test [9]) was “Not Active” in each case. The inhibition constant (Ki) entry in [1], in test [3], in test [6], in test [7] and in test [8] was “Not Active” each time.
